Measurements: PMC4585029, “Agonist and antagonist effects of tobacco-related nitrosamines on human α4β2 nicotinic acetylcholine receptors” (Frontiers in Pharmacology, 2015)
Entries after “also recorded” stand apart in the source; their conditions may differ. Where two headings read alike, the source gives them in different places.

What was measured:
(α7)5 nAChR = system: (α7)5 nAChR; parameters: method as in Dani and Bertrand, [2007]; settings: homopentameric receptors such as (α7)5; ref Dani and Bertrand, [2007]; cited from earlier work
human α4β2 nAChRs = target: T1, human α4β2 nAChRs (Homo sapiens, UniProt P17787+P43681); test: cell-based; format: cell-based; settings: for voltage dependence of the fractional block at the steady state: NNN 10 μM with 10 μM nicotine, NNK 1 μM with 100 nM nicotine, different Vm; for Imax/Inico: maximal current relative to nicotine, whole-cell; for functional behaviour on α4β2 nAChRs: patch-clamp
T1 construct: expressed in transfected cells
Description: HEK 293 cells stably expressing human α4β2 nAChRs were cultured by standard methods (Di Resta et al., [2010]). In brief, cultures were maintained in Dulbecco's modified Eagle's medium (Hyclone Laboratories), supplemented with 10% fetal calf serum (Hyclone), 4.5 g/l glutamine, […] hygromycin β, and 0.25 μg/ml amphoterycin B. Cells were grown at 37°C and 5% CO2. For patch-clamp experiments, cells were harvested by treatment with trypsin and plated onto 35 mm Petri dishes (Corning Inc.).
Cells were voltage-clamped by using the whole-cell configuration of the patch-clamp method. Currents were registered with an Axopatch 200B amplifier (Molecular Devices), at room temperature (20–22°C). Micropipettes (3–4 MΩ) were pulled from borosilicate capillaries (GMBH) with a P-97 Flaming/Brown Micropipette Puller (Sutter Instrument Co.). The cell capacitance and series resistance (up to about 75%) were always compensated. Currents were low-pass filtered at 2 kHz and acquired on-line at 5–10 kHz with Molecular Devices hardware and software (pClamp 8 and Axoscope 8). After patch rupture, we usually allowed 1–2 min for pipette solution exchange and signal stabilization, before applying our stimuli. Extracellular solutions were applied with an RSC-160 Rapid Solution Changer (BioLogic Science Instruments). The solution is delivered to the cells through borosilicate capillaries connected to Tygon tubes. Seven independent lines are available. […] The perfusing line was totally substituted whenever the drug was changed.
Unless otherwise indicated, chemicals, and drugs were purchased by Sigma-Aldrich Italia Srl. The extracellular solution contained (mM): NaCl 130, KCl 5, CaCl2 2, MgCl2 2, HEPES 10, D-glucose 5 (pH 7.4; adjusted with NaOH). Pipettes contained (mM): K-aspartate 120, NaCl 10, MgCl2 2, CaCl21.3, EGTA-KOH 10, HEPES 10, MgATP 1, (pH 7.3; adjusted with KOH). […] NNK and NNN (20 mM) were dissolved in water and kept refrigerated for no longer than 1 week. […] The final concentrations were obtained by serial dilution.
Data were analyzed with Clampfit 9.2 (Molecular Devices) and OriginPro 9 (OriginLab Co.). Theoretical curves best fitting the data were determined by a nonlinear least-squares method (Levenberg-Marquardt algorithm). For nAChR activation we used both a simple Hill function and the sum of two Hill expressions (Covernton and Connolly, [2000]). The single-term expression was:
The two-terms Hill expression was:
(2) IL/Imax=A/(1+EC50high/[L])^nH1+1-A/(1+EC50low/[L])^nH2
where A is the fraction of receptors in the high-affinity state; EC50high and EC50low are the EC50 values of the components at high and low affinity, respectively; nH1 and nH2 are the corresponding Hill coefficients, and the other symbols are as in Equation (1).
The function used to fit the desensitization data points (Figure 3) was:
(3) ISS/Ipeak=B+1-B/(1+[L]/IC50)^nH
ISS was found by fitting the current decay with a single exponential function and taking the steady state value of this function. A similar function was used to fit the fractional inhibition in Figures 4B, 5B.
(4) y=αNic[Nic]/EC50+αNNK[NNK]/EC50(NNK)/1+[Nic]/EC50+[NNK]/EC50(NNK)

[1] = system: epibatidine-sensitive nAChRs; parameters: method as in Schuller, [2007]; settings: SCLC cells, ref Schuller, [2007], read-out: EC50 measured in binding studies; cited from earlier work
α3β4 nAChR = system: α3β4 nAChR; parameters: method as in Nunes-Alves et al., [2012]; settings: in the presence of 100 μM nicotine; ref Nunes-Alves et al., [2012]; cited from earlier work
[2] = cited from earlier work
muscle subtype nAChR = system: muscle subtype nAChR; parameters: method as in Nunes-Alves et al., [2012]; settings: ref Nunes-Alves et al., [2012]; cited from earlier work
[3] = two-terms Hill fit (Equation 2)

T1 sequence (P43681 29-627 limits assumed): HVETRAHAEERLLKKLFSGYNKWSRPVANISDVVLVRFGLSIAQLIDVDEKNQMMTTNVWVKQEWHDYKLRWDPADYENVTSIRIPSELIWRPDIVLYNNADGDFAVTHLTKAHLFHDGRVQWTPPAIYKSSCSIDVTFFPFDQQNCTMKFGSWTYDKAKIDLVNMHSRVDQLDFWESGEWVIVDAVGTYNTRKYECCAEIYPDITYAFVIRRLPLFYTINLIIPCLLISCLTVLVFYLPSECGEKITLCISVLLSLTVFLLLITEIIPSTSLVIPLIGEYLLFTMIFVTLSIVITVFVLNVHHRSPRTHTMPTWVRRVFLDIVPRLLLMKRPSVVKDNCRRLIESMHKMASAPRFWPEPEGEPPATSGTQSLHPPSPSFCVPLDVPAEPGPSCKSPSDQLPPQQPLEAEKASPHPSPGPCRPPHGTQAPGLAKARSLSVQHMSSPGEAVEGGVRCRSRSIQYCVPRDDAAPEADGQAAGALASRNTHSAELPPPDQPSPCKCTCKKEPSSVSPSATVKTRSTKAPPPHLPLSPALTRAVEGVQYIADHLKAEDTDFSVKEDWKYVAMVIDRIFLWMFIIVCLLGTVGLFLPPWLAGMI
T1 sequence (P17787 26-502): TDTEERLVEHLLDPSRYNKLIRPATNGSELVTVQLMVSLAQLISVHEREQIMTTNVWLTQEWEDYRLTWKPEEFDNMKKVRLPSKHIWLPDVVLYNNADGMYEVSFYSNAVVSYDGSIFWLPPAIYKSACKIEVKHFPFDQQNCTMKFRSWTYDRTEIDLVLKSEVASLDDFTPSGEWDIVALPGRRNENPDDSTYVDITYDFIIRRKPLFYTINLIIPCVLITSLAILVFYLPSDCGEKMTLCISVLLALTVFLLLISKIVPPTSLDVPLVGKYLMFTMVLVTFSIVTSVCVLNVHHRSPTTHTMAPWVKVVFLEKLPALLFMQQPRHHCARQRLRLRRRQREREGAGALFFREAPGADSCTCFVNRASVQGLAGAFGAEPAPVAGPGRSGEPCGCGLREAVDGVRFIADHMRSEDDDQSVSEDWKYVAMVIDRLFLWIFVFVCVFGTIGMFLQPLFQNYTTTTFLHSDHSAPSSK

SMILES: CN(CCCC(=O)c1cccnc1)N=O [NNK, 4-(methylnitrosamine)-1-(3-pyridyl)-1-butanone]
- peak current (human α4β2 nAChRs; 10 nM nicotine plus 1 μM NNK, n = 11): 160 ± 30 pA
- average current (human α4β2 nAChRs; 100 nM nicotine plus 100 μM NNK, n = 8): 159.1 ± 25.1 pA
- potentiation of the current activated by nicotine (human α4β2 nAChRs; 1 μM NNK on 0.01 μM nicotine): 26%
- concentration of nicotine at which NNK reversed its effect (human α4β2 nAChRs; 1 μM NNK, estimated by fit with Equation 4): around 20 nM
- average peak current density (human α4β2 nAChRs; 10 μM NNK alone, −80 mV, n = 9): 5.75 ± 1.22 pA/pF
- concentration of nicotine at which sign reversal of NNK effect occurs (human α4β2 nAChRs; 100 μM NNK): approximately 400 nM
- potentiation of the current activated by nicotine (human α4β2 nAChRs; 100 μM NNK on 100 nM (0.1 μM) nicotine, −80 mV): approximately 80%
- measured peak current relative to the value in the presence of 300 μM nicotine (human α4β2 nAChRs; 100 μM NNK, −80 mV, n = 13): 0.14 ± 0.02
- nH of desensitization curve (human α4β2 nAChRs; Equation 3): 0.9
- inhibition at 100 µM (human α4β2 nAChRs; HEK293, read-out: inhibition of the current elicited by nicotine): 40%
- nicotine concentrations whose currents are potentiated by co-applied NNK (human α4β2 nAChRs; NNK co-applied with nicotine): ≤ 100 nM
- effect on the currents activated by 10 μM nicotine (human α4β2 nAChRs; NNK concentrations up to 100 nM): no effect
- voltage dependence of the fractional block at the steady state (human α4β2 nAChRs): independent of the applied Vm
- nH, Hill coefficient of single-term Hill fit (Equation 1) (human α4β2 nAChRs; activation by agonist alone, −80 mV): 0.44
- nH of inhibition curve (human α4β2 nAChRs; currents activated by 10 μM nicotine, Equation 3): 0.95
- fit parameters αNIC / αNNK of Equation 4 (human α4β2 nAChRs; fit of data with 1 μM NNK plus nicotine (Figure 5C)): 5 µM
- estimated maximal current activated by NNK, % of the current elicited by 300 μM nicotine (human α4β2 nAChRs; from Equation 1 fit, −80 mV): approximately 16%
- Imax/Inico (human α4β2 nAChRs; −80 mV): 0.16
- functional behaviour on α4β2 nAChRs (human α4β2 nAChRs): partial agonist
- IC50 (human α4β2 nAChRs; read-out: Desensitization IC50, fractional steady state current ISS/Ipeak vs agonist concentration, Equation 3): 1700 nM
- EC50 (human α4β2 nAChRs; read-out: EC50 (single-term Hill, Equation 1), peak whole-cell currents at −80 mV, activation by agonist alone): 16.7 µM
- EC50 (human α4β2 nAChRs; read-out: EC50high, high-affinity component, two-terms Hill fit (Equation 2)): 0.035 µM
- EC50 (human α4β2 nAChRs; read-out: EC50low, low-affinity component, two-terms Hill fit (Equation 2)): 12.8 µM
- IC50 (human α4β2 nAChRs; read-out: Inhibition IC50, with 10 μM nicotine, steady state fractional current, −80 mV): > 100000 nM
- Hill coefficient of the high-affinity component (nH1 in Table 1) (human α4β2 nAChRs; [3]): 1.2
- Hill coefficient of the low-affinity component (nH2 in Table 1) (human α4β2 nAChRs; [3]): 1.4
- NNK concentrations that elicited inward currents (human α4β2 nAChRs; −80 mV, NNK alone): higher than 10 nM
- EC50 [1]: ~17 µM

SMILES: O=NN1CCC[C@H]1c1cccnc1 [NNN, N'-nitrosonornicotine]
- IC50 (α3β4 nAChR): 1.14 mM
- voltage dependence of the fractional block at the steady state (human α4β2 nAChRs): independent of the applied Vm
- Imax/Inico (human α4β2 nAChRs; −80 mV): 0
- functional behaviour on α4β2 nAChRs (human α4β2 nAChRs): pure inhibitor
- IC50 (human α4β2 nAChRs; read-out: Inhibition IC50): ~1 nM
- IC50 (human α4β2 nAChRs; with 10 μM nicotine, steady state fractional current, −80 mV, read-out: Inhibition IC50): 0.21 nM
- nAChR activation (whole-cell current) by the compound alone (human α4β2 nAChRs; −80 mV, NNN 10 μM and up to 100 μM): never produced nAChR activation; also recorded: did not elicit any whole-cell current
- concentrations normally encountered in smokers' plasma ([2]; ref Schuller, [2007]): < 100 pM
- effect on the muscle subtype (muscle subtype nAChR): little effect

SMILES: CN1CCC[C@H]1c1cccnc1 [Nicotine, nicotine, reference compound]
- average current (human α4β2 nAChRs): 89.4 ± 19.4 pA
- nH of nicotine alone (Figure 4C) (human α4β2 nAChRs): 0.83
- nH of nicotine in the presence of 1 nM NNN (human α4β2 nAChRs): 0.92
- nH of nicotine in the presence of 1 μM NNN (human α4β2 nAChRs): 1
- peak current (human α4β2 nAChRs): 119 ± 24 pA
